Results taken from ChEMBL document CHEMBL6103588, “Promising thiazolidinedione-thiazole based multi-target and neuroprotective hybrids for Alzheimer's disease: Design, synthesis, in-vitro, in-vivo and in-silico studies” (Eur J Med Chem, 2025).

What was measured:
Acetylcholinesterase [1] = biological target: Acetylcholinesterase (Homo sapiens, UniProt P22303); assay: Inhibition of AChE (unknown origin) using acetylthiocholine iodide as substrate pre-incubated for 30 mins followed by substrate addition and measured after 30 mins by DTNB reagent based Ellman's method
Acetylcholinesterase (Homo sapiens, UniProt P22303), sequence (P22303 whole entry): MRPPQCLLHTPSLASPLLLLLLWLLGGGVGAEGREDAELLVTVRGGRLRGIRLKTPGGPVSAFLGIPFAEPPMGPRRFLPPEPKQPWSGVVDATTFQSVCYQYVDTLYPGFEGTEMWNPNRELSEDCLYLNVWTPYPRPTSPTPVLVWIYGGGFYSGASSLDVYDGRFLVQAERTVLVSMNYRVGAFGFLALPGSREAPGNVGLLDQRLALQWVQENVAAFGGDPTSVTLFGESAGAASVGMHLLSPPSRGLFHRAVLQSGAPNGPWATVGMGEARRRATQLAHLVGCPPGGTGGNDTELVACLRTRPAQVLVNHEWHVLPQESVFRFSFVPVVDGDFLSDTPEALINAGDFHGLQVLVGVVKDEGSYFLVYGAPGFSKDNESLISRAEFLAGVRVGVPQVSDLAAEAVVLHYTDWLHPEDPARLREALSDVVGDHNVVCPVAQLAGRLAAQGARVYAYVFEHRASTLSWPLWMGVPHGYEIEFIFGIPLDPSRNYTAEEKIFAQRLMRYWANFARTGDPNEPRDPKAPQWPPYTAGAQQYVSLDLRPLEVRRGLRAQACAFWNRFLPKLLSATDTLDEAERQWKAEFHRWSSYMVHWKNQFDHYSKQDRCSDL

[2] = biological target: T1, Amine oxidase [flavin-containing] B (Homo sapiens, UniProt P27338); assay: Inhibition of MAO-B (unknown origin)
T1 sequence (P27338 whole entry): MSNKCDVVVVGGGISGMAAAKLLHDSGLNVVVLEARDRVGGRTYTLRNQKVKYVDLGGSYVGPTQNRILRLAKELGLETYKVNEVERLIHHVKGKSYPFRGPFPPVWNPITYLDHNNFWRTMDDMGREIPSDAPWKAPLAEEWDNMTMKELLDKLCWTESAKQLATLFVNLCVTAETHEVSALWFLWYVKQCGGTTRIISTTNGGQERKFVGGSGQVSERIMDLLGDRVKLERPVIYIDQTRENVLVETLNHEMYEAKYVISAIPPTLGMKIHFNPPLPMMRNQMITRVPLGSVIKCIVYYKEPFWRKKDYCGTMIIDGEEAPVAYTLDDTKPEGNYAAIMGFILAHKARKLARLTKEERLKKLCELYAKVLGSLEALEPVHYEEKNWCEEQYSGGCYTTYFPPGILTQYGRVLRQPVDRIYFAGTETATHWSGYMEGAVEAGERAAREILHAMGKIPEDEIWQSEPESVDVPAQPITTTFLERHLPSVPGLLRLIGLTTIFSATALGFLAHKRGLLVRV

in vitro = conditions: PAMPA, pH 7.4
Description: Permeability of compound in PBS at pH 7.4 incubated for 20 hrs by PAMPA-BBB assay

[3] = biological target: T2, Prostaglandin G/H synthase 2 (Homo sapiens, UniProt P35354); assay: Inhibition of human COX2 by EIA method
T2 sequence (P35354 whole entry): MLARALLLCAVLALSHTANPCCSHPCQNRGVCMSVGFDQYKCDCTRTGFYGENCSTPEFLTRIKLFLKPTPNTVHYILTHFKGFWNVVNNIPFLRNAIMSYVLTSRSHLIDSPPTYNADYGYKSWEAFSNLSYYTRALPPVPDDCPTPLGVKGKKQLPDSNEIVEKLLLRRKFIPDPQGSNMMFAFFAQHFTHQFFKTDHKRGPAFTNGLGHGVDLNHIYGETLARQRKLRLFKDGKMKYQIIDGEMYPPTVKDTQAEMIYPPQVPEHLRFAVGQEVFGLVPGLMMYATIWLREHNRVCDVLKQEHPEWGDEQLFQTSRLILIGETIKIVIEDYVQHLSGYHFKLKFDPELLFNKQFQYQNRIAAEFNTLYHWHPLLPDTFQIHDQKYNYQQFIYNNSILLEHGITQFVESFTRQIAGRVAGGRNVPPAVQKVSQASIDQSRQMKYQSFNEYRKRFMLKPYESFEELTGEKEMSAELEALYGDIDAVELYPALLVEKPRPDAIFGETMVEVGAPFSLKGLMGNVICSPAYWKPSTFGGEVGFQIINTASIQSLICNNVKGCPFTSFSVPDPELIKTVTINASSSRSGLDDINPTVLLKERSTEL

[4] = biological target: Prostaglandin G/H synthase 1 (Homo sapiens, UniProt P23219)
Prostaglandin G/H synthase 1, sequence (P23219 whole entry): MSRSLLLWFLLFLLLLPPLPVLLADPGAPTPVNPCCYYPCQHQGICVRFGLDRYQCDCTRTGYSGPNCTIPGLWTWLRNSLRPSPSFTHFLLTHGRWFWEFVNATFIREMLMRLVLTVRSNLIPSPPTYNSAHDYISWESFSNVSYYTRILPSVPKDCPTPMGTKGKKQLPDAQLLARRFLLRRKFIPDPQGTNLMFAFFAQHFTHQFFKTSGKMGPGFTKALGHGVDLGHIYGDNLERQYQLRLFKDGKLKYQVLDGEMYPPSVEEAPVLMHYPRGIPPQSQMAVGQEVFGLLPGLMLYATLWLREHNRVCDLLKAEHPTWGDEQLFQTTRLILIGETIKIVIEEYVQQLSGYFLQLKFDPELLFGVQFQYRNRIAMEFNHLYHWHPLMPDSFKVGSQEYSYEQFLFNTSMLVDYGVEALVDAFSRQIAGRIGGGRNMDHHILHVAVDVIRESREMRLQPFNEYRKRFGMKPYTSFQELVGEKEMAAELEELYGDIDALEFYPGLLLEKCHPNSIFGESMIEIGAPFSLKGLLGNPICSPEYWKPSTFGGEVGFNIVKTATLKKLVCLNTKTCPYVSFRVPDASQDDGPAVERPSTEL

Acetylcholinesterase [5] = biological target: Acetylcholinesterase (Electrophorus electricus, UniProt O42275); assay: Inhibition of Electric eel AChE using acetylthiocholine iodide as substrate pre-incubated for 10 mins followed by substrate addition and measured after 15 mins by DTNB reagent based Ellman's method
Acetylcholinesterase (Electrophorus electricus, UniProt O42275), sequence (O42275 whole entry): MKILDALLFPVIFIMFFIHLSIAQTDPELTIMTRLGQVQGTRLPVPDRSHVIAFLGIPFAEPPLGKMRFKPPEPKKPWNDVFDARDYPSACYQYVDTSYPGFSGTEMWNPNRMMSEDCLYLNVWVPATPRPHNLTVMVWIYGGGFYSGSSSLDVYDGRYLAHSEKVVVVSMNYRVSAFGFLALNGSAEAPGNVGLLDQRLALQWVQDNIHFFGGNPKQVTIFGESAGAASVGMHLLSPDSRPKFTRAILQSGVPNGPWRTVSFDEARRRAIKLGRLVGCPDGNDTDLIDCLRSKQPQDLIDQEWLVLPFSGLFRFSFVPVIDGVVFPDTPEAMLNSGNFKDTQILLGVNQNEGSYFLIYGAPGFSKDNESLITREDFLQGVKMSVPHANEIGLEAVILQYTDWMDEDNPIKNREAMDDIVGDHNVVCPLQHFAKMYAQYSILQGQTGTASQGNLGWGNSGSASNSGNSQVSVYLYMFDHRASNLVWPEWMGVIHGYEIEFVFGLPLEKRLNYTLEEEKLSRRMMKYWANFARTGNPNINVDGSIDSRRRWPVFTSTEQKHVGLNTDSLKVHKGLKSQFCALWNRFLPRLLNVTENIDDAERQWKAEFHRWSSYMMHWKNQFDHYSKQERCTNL

Beta-secretase 1 = Beta-secretase 1 (Homo sapiens, UniProt P56817); assay: Inhibition of BACE-1 (unknown origin) 667-676- (2, 4-dinitrophenyl) Lys-Arg-Arg amide trifluoroacetate as substrate preincubated for 15 mins followed by substrate addition and measured after 2 hrs by fluorescence spectrometric analysis
Beta-secretase 1, sequence (P56817 whole entry): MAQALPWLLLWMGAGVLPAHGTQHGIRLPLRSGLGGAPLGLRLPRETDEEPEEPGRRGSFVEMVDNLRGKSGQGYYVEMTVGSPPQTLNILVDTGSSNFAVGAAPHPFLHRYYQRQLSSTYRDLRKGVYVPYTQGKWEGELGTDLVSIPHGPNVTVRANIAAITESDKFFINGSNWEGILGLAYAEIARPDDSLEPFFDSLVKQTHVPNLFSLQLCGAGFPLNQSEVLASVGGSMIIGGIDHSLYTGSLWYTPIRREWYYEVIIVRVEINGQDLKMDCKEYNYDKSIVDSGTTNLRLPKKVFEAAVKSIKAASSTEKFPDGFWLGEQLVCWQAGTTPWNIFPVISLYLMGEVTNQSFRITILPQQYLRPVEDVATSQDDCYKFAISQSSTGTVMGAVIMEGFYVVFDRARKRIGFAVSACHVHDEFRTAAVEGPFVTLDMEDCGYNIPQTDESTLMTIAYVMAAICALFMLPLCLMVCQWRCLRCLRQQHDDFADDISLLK

[6] = Neurotoxicity against human SH-SY5Y cells assessed as reduction in cell viability upto 50 uM incubated for 24 hrs by MTT assay; type: toxicity, cell-based
[7] = Lipophilicity, logP of compound; type: physicochemical; conditions: octanol/water
Cholinesterase [8] = biological target: Cholinesterase (Equus caballus, UniProt P81908); assay: Inhibition of equine serum BuChE using butyrylthiocholine iodide as substrate pre-incubated for 10 mins followed by substrate addition and measured after 15 mins by DTNB reagent based Ellman's method
Cholinesterase (Equus caballus, UniProt P81908), sequence (P81908 whole entry): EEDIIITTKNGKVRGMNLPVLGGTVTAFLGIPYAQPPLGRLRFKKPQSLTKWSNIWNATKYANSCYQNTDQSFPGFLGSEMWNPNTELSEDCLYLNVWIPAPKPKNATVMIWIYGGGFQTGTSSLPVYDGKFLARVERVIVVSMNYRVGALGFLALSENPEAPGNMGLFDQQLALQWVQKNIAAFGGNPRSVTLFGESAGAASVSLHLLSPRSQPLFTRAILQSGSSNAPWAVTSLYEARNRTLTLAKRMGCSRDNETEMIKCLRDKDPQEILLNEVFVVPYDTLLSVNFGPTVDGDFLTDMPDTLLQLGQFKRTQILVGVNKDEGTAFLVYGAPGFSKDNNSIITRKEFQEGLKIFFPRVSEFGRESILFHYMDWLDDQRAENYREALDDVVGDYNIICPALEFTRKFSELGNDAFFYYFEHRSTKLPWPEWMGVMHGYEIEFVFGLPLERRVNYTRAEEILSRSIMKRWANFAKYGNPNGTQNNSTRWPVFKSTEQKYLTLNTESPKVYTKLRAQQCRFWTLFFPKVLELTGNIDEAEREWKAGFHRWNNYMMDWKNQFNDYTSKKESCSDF

Cholinesterase [9] = biological target: Cholinesterase (Homo sapiens, UniProt P06276); assay: Inhibition of BChE (unknown origin)
Cholinesterase (Homo sapiens, UniProt P06276), sequence (P06276 whole entry): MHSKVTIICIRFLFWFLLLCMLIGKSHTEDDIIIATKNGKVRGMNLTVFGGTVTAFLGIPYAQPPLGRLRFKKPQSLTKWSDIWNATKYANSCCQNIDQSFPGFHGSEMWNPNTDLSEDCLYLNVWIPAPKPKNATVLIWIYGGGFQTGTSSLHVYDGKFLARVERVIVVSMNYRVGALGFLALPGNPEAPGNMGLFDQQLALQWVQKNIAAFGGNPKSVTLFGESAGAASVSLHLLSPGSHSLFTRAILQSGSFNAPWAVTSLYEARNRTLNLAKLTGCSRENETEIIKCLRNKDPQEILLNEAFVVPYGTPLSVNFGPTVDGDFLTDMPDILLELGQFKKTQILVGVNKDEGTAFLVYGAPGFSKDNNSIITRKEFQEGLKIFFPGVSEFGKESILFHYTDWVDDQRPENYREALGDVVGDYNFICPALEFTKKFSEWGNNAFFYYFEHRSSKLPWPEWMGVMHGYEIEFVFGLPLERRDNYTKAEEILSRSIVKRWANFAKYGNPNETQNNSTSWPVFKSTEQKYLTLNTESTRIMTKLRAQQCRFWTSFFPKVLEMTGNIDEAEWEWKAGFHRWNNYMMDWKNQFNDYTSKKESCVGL

[10] = biological target: T1, Amine oxidase [flavin-containing] B; conditions: read-out: INH
Description: Inhibition of MAO-B (unknown origin) at 100 uM relative to control

[11] = biological target: T3, Amine oxidase [flavin-containing] A (Homo sapiens, UniProt P21397); assay: Inhibition of human MAO-A using tyramine/benzylamine as substrate measured after 30 mins by fluorometric assay
T3 sequence (P21397 whole entry): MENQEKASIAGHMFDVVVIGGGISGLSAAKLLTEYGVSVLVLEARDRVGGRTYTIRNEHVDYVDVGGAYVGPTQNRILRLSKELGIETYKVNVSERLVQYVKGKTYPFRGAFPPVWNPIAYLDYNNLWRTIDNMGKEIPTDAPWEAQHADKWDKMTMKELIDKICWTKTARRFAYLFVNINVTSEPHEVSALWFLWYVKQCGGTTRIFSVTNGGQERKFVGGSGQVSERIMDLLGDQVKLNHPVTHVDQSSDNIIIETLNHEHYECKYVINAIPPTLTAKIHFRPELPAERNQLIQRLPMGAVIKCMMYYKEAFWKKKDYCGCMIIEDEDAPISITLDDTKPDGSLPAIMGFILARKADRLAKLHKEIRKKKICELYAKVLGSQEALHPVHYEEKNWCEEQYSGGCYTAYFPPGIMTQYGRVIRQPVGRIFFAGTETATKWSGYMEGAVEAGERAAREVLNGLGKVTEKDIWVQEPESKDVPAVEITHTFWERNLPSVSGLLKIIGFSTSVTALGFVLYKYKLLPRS

[12] = biological target: T1, Amine oxidase [flavin-containing] B; assay: Inhibition of human MAO-B using tyramine/benzylamine as substrate measured after 30 mins by fluorometric assay
[13] = biological target: T2, Prostaglandin G/H synthase 2
Description: Inhibition of COX-2 (unknown origin) using arachidonic acid as substrate and in presence of TMPD preincubated for 5 mins followed by substrate addition and measured after 5 mins by UV visible spectrophotometric analysis

[14] = biological target: T4, Polyunsaturated fatty acid 5-lipoxygenase (Homo sapiens, UniProt P09917); assay: Inhibition of 5-LOX (unknown origin) using linoleic acid as substrate incubated for 5 mins followed by substrate addition
T4 sequence (P09917 whole entry): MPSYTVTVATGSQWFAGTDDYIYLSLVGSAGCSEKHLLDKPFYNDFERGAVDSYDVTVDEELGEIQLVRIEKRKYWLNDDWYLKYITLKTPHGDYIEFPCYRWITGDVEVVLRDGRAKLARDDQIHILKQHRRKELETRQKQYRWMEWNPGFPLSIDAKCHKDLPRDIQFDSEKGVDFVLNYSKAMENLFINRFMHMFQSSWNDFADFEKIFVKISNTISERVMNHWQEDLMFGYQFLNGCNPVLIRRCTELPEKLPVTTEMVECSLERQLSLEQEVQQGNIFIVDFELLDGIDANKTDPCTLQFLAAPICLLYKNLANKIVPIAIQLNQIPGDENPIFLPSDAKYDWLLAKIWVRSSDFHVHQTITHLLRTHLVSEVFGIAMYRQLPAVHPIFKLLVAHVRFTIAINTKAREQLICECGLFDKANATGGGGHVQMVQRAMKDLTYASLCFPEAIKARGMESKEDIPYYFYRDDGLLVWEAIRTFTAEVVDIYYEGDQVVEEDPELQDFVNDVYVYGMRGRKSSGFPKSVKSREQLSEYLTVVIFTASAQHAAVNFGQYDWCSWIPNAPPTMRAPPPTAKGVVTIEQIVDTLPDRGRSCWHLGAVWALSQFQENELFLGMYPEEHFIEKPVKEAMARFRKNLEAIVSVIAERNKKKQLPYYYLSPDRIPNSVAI

Structure (SMILES): O=C(/C=C/c1ccc(-c2ccccc2)cc1)Nc1nc2ccc(O)cc2s1
- IC50 (Acetylcholinesterase [1]): 71 nM
- IC50 [2]: 37 nM

Structure (SMILES): Cc1nnc2n1-c1ccc(Cl)cc1C(c1ccccc1)=NC2 [ALPRAZOLAM]
- Papp at 20 h (in vitro): 5.59 ×10⁻⁶ cm/s

Structure (SMILES): CS(=O)(=O)c1ccc(-n2cc(/C=C3/SC(=O)NC3=O)c(-c3ccccc3)n2)cc1
- IC50 [3]: 480 nM

Structure (SMILES): O=C(CN1C(=O)S/C(=C\c2c[nH]c3ccccc23)C1=O)Nc1nc2ccccc2s1
- IC50 ([4]; read-out: IC50): 42500 nM
- IC50 (Acetylcholinesterase [5]; read-out: IC50): 450 nM
- IC50 (Beta-secretase 1; read-out: IC50): 910 nM

Structure (SMILES): O=C1S/C(=C\c2c[nH]c3ccccc23)C(=O)N1CNc1nc(-c2ccccc2)cs1
- IC50 (Acetylcholinesterase [5]; read-out: IC50): 52 nM
- IC50 (Beta-secretase 1; read-out: IC50): 760 nM
- Activity [6]: Non-toxic
- logP [7]: 4.65
- Papp at 20 h (in vitro): 10.7 ×10⁻⁶ cm/s

Structure (SMILES): C/C=C1\SC(=O)N(CNc2nc(-c3cc(Cl)cs3)c(Nc3ccc(S(N)(=O)=O)cc3)s2)C1=O
- IC50 [4]: Not_active
- IC50 (Acetylcholinesterase [5]): Not_active
- IC50 (Cholinesterase [8]): 110 nM
- IC50 (Beta-secretase 1; read-out: IC50): 510 nM
- Activity [6]: Non-toxic
- logP [7]: 4.86
- Papp at 20 h (in vitro): 9.1 ×10⁻⁶ cm/s

Structure (SMILES): Cc1ccc2sc(NC(=O)CCN3CCCC3)nc2c1
- IC50 (Cholinesterase [9]): 15000 nM
- inhibition at 100 µM [10]: 60%

Structure (SMILES): O=C(CN1C(=O)S/C(=C\c2ccc(O)cc2)C1=O)Nc1nc2ccccc2s1
- IC50 (Acetylcholinesterase [5]; read-out: IC50): 2760 nM
- IC50 [11]: Not_active

Structure (SMILES): O=C(CCN1CCCC1)Nc1nc2ccc(Br)cc2s1
- IC50 (Cholinesterase [9]): 12000 nM
- inhibition at 100 µM [10]: 66%

Structure (SMILES): COc1ccc(C2CC(c3ccc(O)cc3)=NN2c2nc3ccc(C)cc3s2)cc1OC (stereo not given)
- IC50 (Acetylcholinesterase [1]): 8690 nM

Structure (SMILES): O=C(/C=C/c1ccccc1)Nc1ccc2sc(NCN3C(=O)CSC3=O)nc2c1
- IC50 (Acetylcholinesterase [5]; read-out: IC50): 9070 nM
- IC50 ([11]; read-out: IC50): 65400 nM
- IC50 [12]: 14700 nM
- IC50 (Beta-secretase 1): Not_active
- IC50 [13]: 107 nM
- IC50 [14]: 210 nM

Structure (SMILES): O=C1S/C(=C\c2ccc(-c3ccccc3)cc2)C(=O)N1CNc1nc(-c2ccccc2)cs1
- IC50 (Acetylcholinesterase [5]; read-out: IC50): 63 nM
- IC50 (Beta-secretase 1): Not_active
- Activity [6]: Non-toxic
- logP [7]: 6.78
- Papp at 20 h (in vitro): 14.2 ×10⁻⁶ cm/s

Structure (SMILES): O=C1S/C(=C\c2ccccc2)C(=O)N1c1csc(Nc2ccccc2)n1
- IC50 ([4]; read-out: IC50): 29300 nM
- IC50 (Acetylcholinesterase [5]; read-out: IC50): 290 nM
- IC50 (Cholinesterase [8]): 7180 nM
- IC50 (Beta-secretase 1; read-out: IC50): 10200 nM

Structure (SMILES): O=C1S/C(=C\c2c[nH]c3ccccc23)C(=O)N1c1csc(Nc2ccccc2)n1
- IC50 ([4]; read-out: IC50): 33400 nM
- IC50 (Acetylcholinesterase [5]; read-out: IC50): 690 nM
- IC50 (Cholinesterase [8]): 17400 nM
- IC50 (Beta-secretase 1; read-out: IC50): 19200 nM

Structure (SMILES): O=C(CN1C(=O)S/C(=C\c2c[nH]c3ccccc23)C1=O)Nc1nccs1
- IC50 (Acetylcholinesterase [5]; read-out: IC50): 160 nM
- IC50 (Beta-secretase 1; read-out: IC50): 1180 nM

Structure (SMILES): O=C1S/C(=C\c2ccccc2)C(=O)N1CNc1nc(-c2cc(Cl)cs2)c(Nc2ccccc2)s1
- IC50 [4]: Not_active
- IC50 (Acetylcholinesterase [5]): Not_active
- IC50 (Cholinesterase [8]): 230 nM
- IC50 (Beta-secretase 1; read-out: IC50): 490 nM

Structure (SMILES): O=C1S/C(=C\c2ccc(O)cc2)C(=O)N1CNc1nc2ccccc2s1
- IC50 (Acetylcholinesterase [5]; read-out: IC50): 5980 nM

Structure (SMILES): O=C(CN1C(=O)S/C(=C\c2ccc(O)cc2)C1=O)Nc1nccs1
- IC50 ([4]; read-out: IC50): 51800 nM
- IC50 (Acetylcholinesterase [5]; read-out: IC50): 9030 nM

Structure (SMILES): CCn1cc(C(=O)O)c(=O)c2cc(F)c(N3CCNC(C)C3)c(F)c21 (stereo not given) [LOMEFLOXACIN]
- Papp at 20 h (in vitro): 1.13 ×10⁻⁶ cm/s
